Data set [1] in a line: Special stability study: grinding, heating, tableting (crystal form, DSC). Type of data set: physicochemical.
A short description of data set [2]: Stability under placement condition (30° C., RH 65%), HPLC purity and X-ray powder diffraction. Type of data set: physicochemical. The settings on record: for Crystal form (X-ray powder diffraction) / Purity determined by HPLC: 30° C. The protocol:
Samplings were carried out on Day 5, Day 10, and Day 30.

The nature of data set [3]: Stability of crystal form E spread flat in the air under lighting, heating and high humidity, purity by HPLC. Format: physicochemical. The settings on record: for Purity detected by HPLC, 40° C.: heating 40° C.; for Purity detected by HPLC, 60° C.: heating 60° C.; for Purity detected by HPLC, RH 75%: high humidity RH 75%; for Purity detected by HPLC, RH 90%: high humidity RH 90%; for Purity detected by HPLC, Lighting: lighting 4500 Lux. The protocol:
Samplings were carried out on Day 5 and Day 10.

The conditions of data set [4]: placebo-controlled phase III clinical trial; cited from earlier work.
Data set [5] can be described thus: Drying at 80° C. of crystal product crystallized with butyl acetate. Format: physicochemical. To be noted: crystal product from butyl acetate dried at 80° C.

Consider two compounds from patent US11161871B2, “Crystalline form of obeticholic acid and preparation method therefor” (Jiangsu Hengrui Medicine Co., Ltd., priority 2016, dated 2021).

On to `CC[C@H]1[C@@H](O)[C@@H]2[C@H](CC[C@]3(C)[C@@H]([C@H](C)CCC(=O)O)CC[C@@H]23)[C@@]2(C)CC[C@@H](O)C[C@@H]12` [Crystal form E, obeticholic acid], for which the results for the DSC peak in data set [1] (after grinding treatment for 10 minutes in a mortar under nitrogen), in data set [1] (after heating treatment for 3 hours at 80° C.) and in data set [1] (after tableting treatment) were 94.3 °C, 94.5 °C and 94.6 °C, respectively. Moreover, in data set [1] (ground, heated or tableted (grinding, pressure and heating)), the “Stability of the crystal form (in words)” value is “the crystal form was stable”. Besides, the “Crystal form (X-ray powder diffraction)” value in data set [2] (Day 0), in data set [2] (Day 5), in data set [2] (Day 10) and in data set [2] (Day 30) was “Crystal form E” in each case. For the same compound, the “Purity determined by HPLC” value in data set [2] (Day 0) is given as 99.75%; in data set [2] (Day 5), 99.72%; in data set [2] (Day 10), 99.73%; in data set [2] (Day 30), 99.70%. For the same compound, the “Stability (in words)” value in data set [2] (placement condition 30° C., up to Day 30) is given as “stable under the placement condition”; in data set [3] (lighting, high temperature and high humidity (summary statement)), “stable”; in data set [3] (spread flat in the air, high temperature), “slightly degraded”; in data set [3] (spread flat in the air, lighting/high humidity), “good stability”. The “Purity detected by HPLC, 40° C.” value is 99.7% in data set [3] (day 0), 99.6% in data set [3] (day 5) and 99.5% in data set [3] (day 10). Further, the “Purity detected by HPLC, 60° C.” value in data set [3] (day 0) was determined as 99.7%; in data set [3] (day 5), 99.4%; in data set [3] (day 10), 99.1%. Moreover, the “Purity detected by HPLC, RH 75%” value in data set [3] (day 0), in data set [3] (day 5) and in data set [3] (day 10) was 99.7% each time. For the same compound, the “Purity detected by HPLC, RH 90%” value in data set [3] (day 0) stood at 99.7%; in data set [3] (day 5) it was 99.6%; in data set [3] (day 10) it was 99.5%. For the same compound, the “Purity detected by HPLC, Lighting” value in data set [3] (day 0) is 99.7%; in data set [3] (day 5), 99.6%; in data set [3] (day 10), 99.6%.
Turning to `CC[C@H]1[C@@H](O)[C@@H]2[C@H](CC[C@]3(C)[C@@H]([C@H](C)CCC(=O)O)CC[C@@H]23)[C@@]2(C)CC[C@@H](O)C[C@@H]12` [obeticholic acid], in data set [4], the “Biomarkers associated with reduced risk of liver transplantation” value is “increases the level of two biomarkers associated with reduced risk of liver transplantation”. For the same compound, the “Thermal stability on drying (colour change, degradation)” value in data set [5] was “unstable at 80 °C and has undergone degradation”.
